Measured values: patent US20050217538A1, “Modified Calcium Phosphate Bone Cement” (TECHNISCHE UNIVERSITAT DRESDEN, priority 2004, published 2005)

Experiment: pH, calcium and phosphate contents of the solution surrounding the cement during the setting process
Type: physicochemical
Description: The ion concentrations of the solutions surrounding the cement were determined in that during the setting process samples of the solution were taken regularly and analyzed with regard to pH value (glass electrode), calcium contents and phosphate contents (photometric method), in accordance with the procedure described in connection with Example 2. No deviations into cell and tissue damaging pH ranges (pH<7 and pH>8) were measured. The determined calcium and phosphate ion concentrations were also at a level that is well tolerated by cells and tissue.
The ion concentrations of the solution surrounding the cement were determined in that during the setting process samples of the solution were taken regularly and analyzed with regard to pH value (glass electrode), calcium contents and phosphate contents (photometric method). […]
The ion concentration of the solution surrounding the bone cement was determined in that during the setting process regularly samples of the solution were taken and analyzed with regard to pH value (glass electrode), calcium contents and phosphate contents (photometric method). […] The determined calcium and phosphate ion concentrations were also at a level that is well tolerated by cells and tissue. […]

calcium concentration of the surrounding medium: approximately 2.5 mmol/l
SMILES: Cc1ncc(C[n+]2csc(CCO[P@](=O)(O)OP(=O)(O)O)c2C)c(N)n1 [Thiamine pyrophosphate, thiamine pyrophosphate]
